For 66 compounds, outcome, EC50 and IC50 results are on record in PubChem BioAssay AID179 (DTP/NCI, 2004).

For this test, the system named is CEM cells HIV-1 protection, formazan growth assay. As to the kind of experiment: NCI AIDS Antiviral Assay. The note with it: for IC50: measured here: growth of uninfected CEM cells. The method in brief:
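Steps: treat uninfected and HIV-1-infected human CEM cells at five drug levels; quantify growth by soluble formazan; retest any compound reaching 50% protection; classify actives from the retest.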

Calls of active or inactive are those of the source.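 How the source made its calls: active means compounds giving half or more protection of infected cells from virus-caused growth loss, again on retest; inactive means the rest.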 Where a SMILES comes first, the peptide text is derived from it. The star is where a group is joined. Boc = CC(C)(C)OC(=O)*; OBn = c1ccc(CO*)cc1

Regarding `CC1(C)C(=O)CCC(=O)C(C)(C)C2=CC=C(O2)C(C)(C)C(=O)CCC(=O)C(C)(C)C2=CC=C1O2`, the result was inactive.

Regarding `CC1OC(Oc2c(-c3ccc(O)c(O)c3)oc3cc(O)cc(O)c3c2=O)C(O)C(O)C1O` (centres undefined), the result was inactive.

For `CC(=O)Nc1ccc(/C=C2\SC(=S)N(/C=C3/C(=O)N(c4ccccc4)N=C3C)C2=O)cc1`, the EC50 is more than 200 µM and the IC50 was determined as 72.4 µM.

Turning to `COc1cc(C2C=C(c3ccccc3)Oc3cc4c(cc32)OCO4)cc(OC)c1OC` (centres undefined), the EC50 was more than 2 µM and the IC50 came out at 0.631 µM.

In the case of `O=[N+]([O-])c1ccc(O)c(/C=N\NC(=S)Nc2ccc(F)cc2)c1`, the EC50 is more than 77.6 µM and the 50% inhibitory concentration (IC50) was more than 77.6 µM.

Take `CC1CCCN2C(=O)CN(Cc3ccccc3)CC(=O)N12` (centres undefined): the result was inactive.

With `COc1cc(C2c3cc4c(cc3C(=O)C3CCC(=O)N32)OCO4)cc(OC)c1O` (centres undefined), the EC50 was more than 50.1 µM and the IC50 amounted to 27.5 µM.

For `O=C1C(=O)C2(CC1S(=O)(=O)c1ccccc1)c1ccccc1-c1ccccc12` (centres undefined), the outcome was inactive.

Regarding `C/C(=N/O)C1CC=C(S(=O)(=O)c2ccccc2)C1` (centres undefined), the result was inactive.

`CC(C)C[S+]1C2=C([O-])CC(C)(C)CC2=Nc2ccccc21` (centres undefined): the EC50 is more than 200 µM and the IC50 was more than 200 µM.

For the compound `O=C1Nc2nccnc2C(=O)N2CCC[C@@H]12`, the EC50 is more than 200 µM and the IC50 was more than 200 µM.

`O=C1C(=O)c2ccccc2C(O)=C1C(C1=C(O)c2ccccc2C(=O)C1=O)c1ccc(Cl)cc1Cl`: the EC50 was more than 200 µM and the IC50 stood at 16.2 µM.

As for `CCOP(=O)(CC(=O)c1cc2ccccc2[nH]1)OCC`, the EC50 was more than 851 µM and the IC50 worked out at 437 µM.

In the case of `O=S(=O)(Nc1nnc2c3ccccc3ccn12)c1ccc(F)cc1S`, the EC50 was 214 µM and the IC50 came to 251 µM.

In the case of `Cc1cn([C@H]2C[C@@H]3[C@@H](COC(CCl)N3O)O2)c(=O)[nH]c1=O` (some centres undefined), the EC50 is more than 200 µM and the IC50 is 31.6 µM.

On to `Cc1cc(NC(=O)c2ccc(NC(=O)c3ccc(N)cc3)cc2)ccc1N=Nc1ccc2c(O)c(N=Nc3ccc(S(=O)(=O)O)cc3C)c(S(=O)(=O)O)cc2c1`, for which the EC50 is 6.17 µM and the IC50 is more than 100 µM.

As to `CO/C(N)=C(\C#N)N=Cc1cccnc1`, the EC50 is more than 200 µM and the IC50 is more than 200 µM.

On to `CCOC(=O)N1CCN(c2nc(C)n(-c3ccccc3)c(=S)c2C#N)CC1`, for which the EC50 is more than 200 µM and the IC50 was more than 200 µM.

Take `Cc1sc2ccc3ccccc3c2[n+]1C`: the EC50 was more than 200 µM and the IC50 is 45.7 µM.

Turning to `Cc1cn2c(=O)c3ncn(C4OC(CO)C(O)C4O)c3n(C)c2n1` (centres undefined), the outcome was inactive.

Regarding `COc1cccc2c(NNc3ccc(Cl)cc3)c3ccc([N+](=O)[O-])cc3nc12`, the EC50 was more than 200 µM and the IC50 is 12.3 µM.

As to `CN(C)CC1CCC/C(=C\c2ccccc2)C1=O` (centres undefined), the EC50 was more than 200 µM and the IC50 stood at 0.708 µM.

Consider `COc1nc2ncc([C@@H](O)[C@H](O)CO)nc2c(=O)[nH]1`, for which the EC50 was more than 200 µM and the IC50 was more than 200 µM.

Consider `O=C(Sc1ccccc1)C1OC12CCCCC2` (centres undefined), for which the EC50 was more than 200 µM and the half-inhibitory concentration (IC50) was 13.2 µM.

With `COc1ccc(N2C(=O)C3CC4=CC(=O)C[C@H]4[C@H]32)cc1` (some centres undefined), the EC50 is more than 200 µM and the IC50 turned out to be 151 µM.

Take `CC[C@]12C=CCN3CCC4(c5cc([C@]6(C(=O)OC)C[C@H]7CN(CCc8c6[nH]c6ccccc86)CC6CCCCC67)c(OC)cc5N(C)C4[C@@](O)(C(=O)OC)C1OC(C)=O)[C@@H]32` (some centres undefined): the EC50 is more than 89.1 µM and the IC50 stood at 1.7 µM.

For the compound `CC(C)(C)OC(=O)NC(Cc1ccc(O)cc1)C(=O)N1CCCC1C(=O)O` (stereo not drawn) (Boc-Tyr-Pro-OH; configuration not given here), the EC50 was more than 661 µM and the IC50 was found to be 269 µM.

`Oc1cc(O)c2c(c1)OC(c1ccc(O)c(O)c1)C(O)[C@H]2c1c(O)cc(O)c2c1OC(c1ccc(O)c(O)c1)C(O)C2` (some centres undefined): the EC50 was more than 200 µM and the IC50 turned out to be 110 µM.

Consider `O=C(Nc1nc(=S)c2c(ncn2CCO)[nH]1)c1ccccc1`, for which the EC50 is more than 575 µM and the IC50 is 28.2 µM.

For the compound `CC1CN(c2cc3c(cc2F)c(=O)c(C(=O)O)cn3-c2ccc(N3CCN(C)CC3)cn2)CC(C)N1` (centres undefined), the EC50 is more than 145 µM and the IC50 was found to be 123 µM.

As for `COC(=O)C1=CCON(c2ccccc2)C1c1ccccc1` (centres undefined), the EC50 is more than 45.7 µM.

In the case of `CN(C)C(=O)N1N[C@H](c2ccccc2)[C@@H]1c1ccccc1`, the EC50 was more than 200 µM and the IC50 was 135 µM.

For the compound `C[C@H]1SC(c2ccc(Cl)cc2Cl)N(NC(=O)c2ccncc2)C1=O` (some centres undefined), the EC50 was more than 200 µM and the IC50 is 33.9 µM.

Regarding `O=C(Nc1ccc(/C=C/c2ccc(NC(=O)c3cc(S(=O)(=O)O)c4cccnc4c3O)cc2S(=O)(=O)O)c(S(=O)(=O)O)c1)Nc1ccc(/C=C/c2ccc(NC(=O)c3cc(S(=O)(=O)O)c4cccnc4c3O)cc2S(=O)(=O)O)c(S(=O)(=O)O)c1`, the EC50 is 5.5 µM and the IC50 was determined as 50.1 µM.

For `O=S(Cl)C(Cl)=C(Cl)Cl` (centres undefined), the EC50 is more than 200 µM and the IC50 was determined as 40.7 µM.

Take `COC(=O)C1(c2ccc(N(C)C)cc2OC)CCCN(C(=O)Oc2ccccc2[N+](=O)[O-])CCc2c1[nH]c1ccccc21` (centres undefined): the EC50 is more than 200 µM and the IC50 is more than 200 µM.

Take `CC(C)(C)c1onc2c1C(=O)c1ccccc1-2`: the EC50 is more than 200 µM and the IC50 was 117 µM.

Take `CCOC(=O)Cc1nc2c(N)ncnc2n1C1OC(COC(C)=O)C(OC(C)=O)C1OC(C)=O` (centres undefined): the EC50 was more than 200 µM and the IC50 was more than 200 µM.

Consider `S=C(NCCSSCCNC(=S)Nc1ccccc1)Nc1ccccc1`, for which the EC50 was more than 200 µM and the IC50 was determined as 35.5 µM.

Turning to `COC(=O)C(NC(=O)c1ccccc1)c1ccco1` (centres undefined), the EC50 is more than 955 µM and the IC50 was found to be 479 µM.

Take `CCN(CC)CCNc1ccc(CO)c2sc3ccccc3c(=O)c12`: the result was inactive and the IC50 was determined as 2690 µM.

With `CCOP(=O)(OCC)C(Cc1ccc(OC)c(OC)c1)N=C(c1ccccc1)c1ccccc1` (centres undefined), the EC50 is more than 200 µM and the IC50 is 29.5 µM.

For the compound `FC(F)(F)C(F)(F)/C(=N/Nc1ccccc1)SS/C(=N\Nc1ccccc1)C(F)(F)C(F)(F)F`, the EC50 is more than 200 µM and the IC50 came to 3.16 µM.

Regarding `CCOC(=O)c1cc(C2CCN(Cc3ccccc3)C2=O)c(C(=O)/C=C(/C)N)[nH]1` (centres undefined), the EC50 is more than 200 µM and the concentration for half-maximal inhibition (IC50) is 158 µM.

Turning to `CCn1c(=O)c2c3ccc(O)cc3[nH]c2c2ccc(O)cc21`, the EC50 was more than 200 µM and the IC50 amounted to 38.9 µM.

Consider `O=C1c2cc(Br)ccc2OC2CCON12` (centres undefined), for which the outcome was inactive.

With `CC(C)CCC[C@@H](C)[C@H]1CC[C@H]2[C@@H]3CC[C@H]4C[C@@H](NC(=O)CC=C(c5cc(Cl)c(O)c(C(=O)O)c5)c5cc(Cl)c(O)c(C(=O)O)c5)CC[C@]4(C)[C@H]3CC[C@]12C`, the EC50 is 24 µM and the concentration for half-maximal inhibition (IC50) was 170 µM.

In the case of `COc1cccc(C[C@H]2C(=O)OC[C@@H]2Cc2ccc(OC)c(OC)c2)c1`, the EC50 was more than 200 µM and the half-maximal inhibitory concentration (IC50) was determined as 57.5 µM.

`COc1ccc(C(=O)Nc2sc(SC)nc2C(N)=O)cc1`: the EC50 is more than 200 µM and the IC50 is more than 200 µM.

Regarding `O=P(O)(O)CN1CCNCCN(CP(=O)(O)O)CCNCC1`, the EC50 was more than 200 µM and the half-inhibitory concentration (IC50) is 10 µM.

On to `CCOC(=O)/C=C/CC(C)(C)CCOC(C)=O`, for which the EC50 is more than 200 µM and the half-inhibitory concentration (IC50) was more than 200 µM.

For `N#C/C(=C1\SC(=O)CN1c1ccc(Cl)cc1)c1nc2ccccc2o1`, the EC50 was more than 200 µM and the IC50 worked out at 34.7 µM.

For `COc1cc(/C=C/C(=O)CC(=O)/C=C/c2ccc(O)c(OC)c2)ccc1O` (tested in a mixture with another compound), the EC50 was more than 200 µM and the IC50 was found to be 3.31 µM.

On to `O=C1CCC2(c3ccc(Cl)cc3)Nc3ccncc3N12` (centres undefined), for which the EC50 is more than 631 µM and the IC50 was found to be 91.2 µM.

Take `COc1ccc(NS(=O)CCc2ccccc2)cc1` (centres undefined): the EC50 was more than 200 µM and the IC50 came out at 22.9 µM.

Turning to `Cc1c2ccccc2nc(CN2CCCCC2)[n+]1[O-]`, the EC50 was more than 200 µM and the IC50 is more than 200 µM.

For `COC(=O)C1=C(C)N[C@@]2(C)[C@H](C(=O)OC)C[C@H]1C2(C(C)=O)C(C)=O`, the EC50 is more than 200 µM and the IC50 was more than 200 µM.

As to `Cc1nn(C)cc1P(=S)(c1ccccc1)c1ccccc1`, the EC50 was more than 16.6 µM and the IC50 is more than 16.6 µM.

With `O=C(Cc1ccccc1)N/N=C(/c1nc2ccc([N+](=O)[O-])cc2[nH]c1=O)C(O)c1ccc(C(O)/C(=N/NC(=O)Cc2ccccc2)c2nc3ccc([N+](=O)[O-])cc3[nH]c2=O)cc1` (centres undefined), the EC50 was more than 155 µM and the concentration for half-maximal inhibition (IC50) is 52.5 µM.

Turning to `CC(NC(=O)C(NC(=O)OC(C)(C)C)C(C)C)C(=O)N1CCCC1C(=O)NCC(=O)NC(C(=O)NCC(=O)OCc1ccccc1)C(C)C` (centres undefined) (Boc-VAPGVG-OBn; configuration not given here), the EC50 is more than 200 µM and the half-inhibitory concentration (IC50) was more than 200 µM.

As for `O=C(N/N=C\c1ccc([N+](=O)[O-])s1)c1ccncc1`, the EC50 was more than 200 µM and the IC50 is 8.71 µM.

As for `COC(=O)c1c2c(cc3c1CC1(Cc4cc5c(c(C(C)=O)c4C1)CCC5)C3)CCC2` (centres undefined), the EC50 is more than 6.46 µM and the IC50 was more than 6.46 µM.

Regarding `Cc1ccc(-n2c(C)n[nH]c2=O)cc1`, the EC50 is more than 200 µM and the IC50 is more than 200 µM.

In the case of `Nn1c(SSSSc2nnc(-c3ccccc3)n2N)nnc1-c1ccccc1`, the EC50 is more than 200 µM and the concentration for half-maximal inhibition (IC50) is more than 200 µM.

For the compound `CC1(C)CNC[C@@]2(C)OCCOCCOCCO[C@](C)(CNCC(C)(C)NC2=O)C(=O)N1`, the EC50 is more than 200 µM and the IC50 is more than 200 µM.

As for `C=CCN=C1NC(=O)C(CC(=O)Nc2ccc([N+](=O)[O-])cc2[N+](=O)[O-])S1` (centres undefined), the EC50 was more than 13.8 µM and the IC50 is more than 13.8 µM.

As usually defined, the EC50 is the midpoint of the concentration-response curve. As a reminder, the IC50 is the midpoint of a concentration-inhibition curve.
